Experimental data as given in patent publication US20140154263A1, “Use of TAK1 Inhibitor to Achieve Glycemic Control in Mammals” (Connexios Life Sciences Pvt. Ltd., priority 2012, published 2014).

Assays:
skeletal muscles = experiment: ROS levels in skeletal muscle cells; assay type: cell-based; settings: different disease conditions, FIG. 17 C
Source text: (§1) Oxidative stress mediated by both ROS and RNS (NO) is known to impair mitochondrial function and induced insulin resistance in skeletal muscle (FIG. 17). Furthermore, it is also known that metabolic overload and inflammatory signal drives oxidative stress in skeletal muscles.

IkB = IkB level in skeletal muscle cells; assay type: cell-based; settings: skeletal muscle cells under inflammatory conditions (Infl), FIG. 14
Source text: (§2) Taken together, TAK-1 inhibition could lead to decreased JNK and NFkB signaling under metabolic overload and inflammation.

3T3 L1 cells = experiment: Insulin sensitivity in adipocytes (Western blot p-Akt Thr-308 / total Akt); assay type: cell-based; settings: glucose and palmitate 48 hours, then 10 and 100 nM insulin 15 min, FIG. 2
Procedure: This was ascertained by treating 3T3 L1 cells with glucose and palmitate (GP) for 48 hours in the presence and absence of TAK-1 inhibitor. Cells were then stimulated with 10 and 100 nM insulin (I) for 15 min, following which they were taken up for Western blot analysis for p-Akt ([…]) and total Akt.

[1] = test system: insulin gene, PDX1, IL1b, glucokinase (GCK) and Glut2 (slc2a2); experiment: Gene expression in islet beta cells under inflammatory conditions; assay type: cell-based, rat
muscle cells = experiment: Mitochondrial activity of muscle cells (reduction of MTT); assay type: cell-based; settings: inflammation and oxidative stress conditions, FIG. 18
skeletal muscle cells = experiment: Mitochondrial biogenesis in skeletal muscle cells (mtND1, mitochondrial DNA copy number, MEF2C); assay type: cell-based; settings: FIG. 18
JNK [2] = experiment: JNK phosphorylation under inflammatory conditions in adipocytes; assay type: cell-based; settings: in response to inflammatory cytokine, FIG. 1
3T3F442A cells = experiment: Secreted adiponectin in adipocytes; assay type: cell-based; settings: inflammation (inf) plus metabolic overload (pal), FIG. 4
Source text: Adiponectin is secreted by insulin sensitive mature adipocytes and positively modulates glucose and lipid metabolism in non adipose tissues such as liver, muscle etc. Increased adiponectin secretion is desirable and is correlated with whole body insulin sensitivity. Inflammation (inf) in the presence of metabolic overload (pal) caused a decrease in adiponectin secretion in 3T3F442A cells.

C2C12 myotubes = experiment: NO release from muscle cells; assay type: cell-based
Source text: as §1

JNK [3] = experiment: JNK activation in skeletal muscle cells; assay type: cell-based
Source text: as §2

rat islets = experiment: Glucose stimulated insulin secretion (GSIS) under inflammatory conditions; assay type: cell-based; settings: inflammatory condition (Infl), FIG. 25
rat primary hepatocytes = experiment: Reactive oxygen species in rat primary hepatocytes; assay type: cell-based; settings: glucose, palmitate and inflammatory cytokines, FIG. 8
Source text: Reactive oxygen species (ROS) are generated as metabolic byproducts, particularly as a byproduct of oxidative phosphorylation. Under normal conditions, the levels of ROS generated are low and tightly controlled, and can function as signaling intermediates.

3T3F442A pre adipocytes = experiment: Adipogenesis (TG levels) under inflammatory cytokines; assay type: cell-based; settings: differentiation with inflammatory cytokines, FIG. 3
Procedure: Experiments were performed in which inflammatory cytokines were added to 3T3F442A pre adipocytes (UD) and TG levels were estimated as a measure of adipogenesis. Differentiation was carried out in the presence and absence of TAK-1 inhibitor.

[4] = metabolic overload or inflammation

COc1cc(O)c2c(c1)/C=C/C[C@H](O)[C@H](O)C(=O)/C=C\C[C@H](C)OC2=O [(5Z)-7-Oxozeaenol]
ROS levels (skeletal muscles): reduced | IkB level (NFkB pathway) (IkB): increasing IkB level | insulin sensitivity (p-Akt Thr-308 / total Akt) (3T3 L1 cells): restored insulin sensitivity | inflammation induced IL1b expression ([1]; rat islet, FIG. 27): reduce inflammation induced IL1b expression | insulin gene and PDX1 expression ([1]; rat islets, under inflammation, FIG. 26): up-regulate | mitochondrial activity (reduction of MTT) (muscle cells): increase mitochondrial activity | mitochondrial DNA copy number (skeletal muscle cells; [4]): increased mitochondrial DNA copy number | muscle enriched transcription factor (MEF2C) (skeletal muscle cells; [4]): increased | expression of mitochondrial genes such as mtND1 (skeletal muscle cells; skeletal muscle cells): up-regulate | activation of JNK (JNK [2]): decreased activation of JNK | decrease in adiponectin secretion (3T3F442A cells): partially inhibited | inflammation induced NO release (C2C12 myotubes; C2C12 myotubes, FIG. 17 A): reduced inflammation induced NO release from C2C12 myotubes in a dose dependent manner | NO release (C2C12 myotubes; skeletal muscles, metabolic overload (high glucose and palmitate) and inflammatory conditions, FIG. 17 B): reduced NO release | activation of JNK (JNK [3]; in response to inflammatory cytokines, FIG. 13): decreased activation of JNK | activation of JNK (JNK [3]; in response to metabolic stress (palmitate overload)): reduce activation of JNK | glucose stimulated insulin secretion (GSIS) (rat islets): restored GSIS | intracellular ROS levels (rat primary hepatocytes): reduced ROS levels | TG levels as a measure of adipogenesis (3T3F442A pre adipocytes): partially restored
